Results from PubChem BioAssay (NCI).
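How tested: cells in 96-well plates exposed to compound for 48 hours at five concentrations. TGI marks complete inhibition of growth.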

Key:
Test in all cases: NCI-60 cell line screen, 48 h
COLO 205 colon = system: COLO 205 colon
MDA-N = system: MDA-N
CCRF-CEM leukemia = system: CCRF-CEM leukemia
SF-539 CNS = system: SF-539 CNS
SNB-19 CNS = system: SNB-19 CNS
KM12 colon = system: KM12 colon
TK-10 renal = system: TK-10 renal
SF-295 CNS = system: SF-295 CNS
A549 NSCLC = system: A549 NSCLC
SF-268 CNS = system: SF-268 CNS
NCI-H226 lung = system: NCI-H226 lung
EKVX NSCLC = system: EKVX NSCLC
UACC-257 melanoma = system: UACC-257 melanoma
IGROV1 ovarian = system: IGROV1 ovarian
SNB-75 CNS = system: SNB-75 CNS
OVCAR-4 ovarian = system: OVCAR-4 ovarian
A498 renal = system: A498 renal
786-0 renal = system: 786-0 renal
UO-31 renal = system: UO-31 renal
UACC-62 melanoma = system: UACC-62 melanoma
ACHN renal = system: ACHN renal
SK-OV-3 ovarian = system: SK-OV-3 ovarian
PC-3 prostate = system: PC-3 prostate
DU-145 prostate = system: DU-145 prostate
OVCAR-3 ovarian = system: OVCAR-3 ovarian
HCC-2998 colon = system: HCC-2998 colon
MCF7 breast = system: MCF7 breast
HS 578T breast = system: HS 578T breast
MDA-MB-231 breast = system: MDA-MB-231 breast
OVCAR-5 ovarian = system: OVCAR-5 ovarian
OVCAR-8 ovarian = system: OVCAR-8 ovarian
K-562 leukemia = system: K-562 leukemia
HCT-116 colon = system: HCT-116 colon
RXF 393 renal = system: RXF 393 renal
MALME-3M melanoma = system: MALME-3M melanoma
NCI-H23 lung = system: NCI-H23 lung
SN12C renal = system: SN12C renal
HCT-15 colon = system: HCT-15 colon
NCI-H522 lung = system: NCI-H522 lung
CAKI-1 renal = system: CAKI-1 renal
NCI/ADR-RES ovarian = system: NCI/ADR-RES ovarian
MOLT-4 leukemia = system: MOLT-4 leukemia
SK-MEL-2 melanoma = system: SK-MEL-2 melanoma
NCI-H460 lung = system: NCI-H460 lung
T-47D breast = system: T-47D breast
MDA-MB-435 = system: MDA-MB-435
HT29 colon = system: HT29 colon
SK-MEL-5 melanoma = system: SK-MEL-5 melanoma
BT-549 breast = system: BT-549 breast
M14 melanoma = system: M14 melanoma
HOP-62 NSCLC = system: HOP-62 NSCLC
U251 CNS = system: U251 CNS
SW-620 colon = system: SW-620 colon
SK-MEL-28 melanoma = system: SK-MEL-28 melanoma
RPMI-8226 leukemia = system: RPMI-8226 leukemia
HOP-92 NSCLC = system: HOP-92 NSCLC
LOX IMVI melanoma = system: LOX IMVI melanoma
HL-60(TB) leukemia = system: HL-60(TB) leukemia

SMILES: c1ccc(-c2cc(-c3cc(-c4ccccc4)n(-c4ccccc4)n3)nn2-c2ccccc2)cc1
- TGI (COLO 205 colon): > 100000 nM
- TGI (MDA-N): > 100000 nM
- TGI (CCRF-CEM leukemia): > 100000 nM
- TGI (SF-539 CNS): > 100000 nM
- TGI (SNB-19 CNS): > 100000 nM
- TGI (KM12 colon): > 100 µM
- TGI (TK-10 renal): > 100000 nM
- TGI (SF-295 CNS): > 100 µM
- TGI (A549 NSCLC): > 100 µM
- TGI (SF-268 CNS): > 100000 nM
- TGI (NCI-H226 lung): > 100 µM
- TGI (EKVX NSCLC): > 100000 nM
- TGI (UACC-257 melanoma): > 100000 nM
- TGI (IGROV1 ovarian): > 100000 nM
- TGI (SNB-75 CNS): > 100 µM
- TGI (OVCAR-4 ovarian): > 100 µM
- TGI (A498 renal): > 100 µM
- TGI (786-0 renal): > 100000 nM
- TGI (UO-31 renal): > 100000 nM
- TGI (UACC-62 melanoma): > 100000 nM
- TGI (ACHN renal): > 100000 nM
- TGI (SK-OV-3 ovarian): > 100 µM
- TGI (PC-3 prostate): > 100000 nM
- TGI (DU-145 prostate): > 100000 nM
- TGI (OVCAR-3 ovarian): > 100000 nM
- TGI (HCC-2998 colon): > 100 µM
- TGI (MCF7 breast): > 100000 nM
- TGI (HS 578T breast): > 100 µM
- TGI (MDA-MB-231 breast): > 100000 nM
- TGI (OVCAR-5 ovarian): > 100 µM
- TGI (OVCAR-8 ovarian): > 100000 nM
- TGI (K-562 leukemia): > 100 µM
- TGI (HCT-116 colon): > 100000 nM
- TGI (RXF 393 renal): > 100000 nM
- TGI (MALME-3M melanoma): > 100000 nM
- TGI (NCI-H23 lung): > 100000 nM
- TGI (SN12C renal): > 100000 nM
- TGI (HCT-15 colon): > 100 µM
- TGI (NCI-H522 lung): > 100000 nM
- TGI (CAKI-1 renal): > 100000 nM
- TGI (NCI/ADR-RES ovarian): > 100 µM
- TGI (MOLT-4 leukemia): > 100 µM
- TGI (SK-MEL-2 melanoma): > 100000 nM
- TGI (NCI-H460 lung): > 100000 nM
- TGI (T-47D breast): > 100000 nM
- TGI (MDA-MB-435): > 100000 nM
- TGI (HT29 colon): > 100000 nM
- TGI (SK-MEL-5 melanoma): > 100000 nM
- TGI (BT-549 breast): > 100 µM
- TGI (M14 melanoma): > 100000 nM
- TGI (HOP-62 NSCLC): > 100 µM
- TGI (U251 CNS): > 100000 nM

SMILES: O=[As](O)(O)c1ccc(Cc2ccc([As](=O)(O)O)cc2)cc1
- TGI (COLO 205 colon): 1900 nM
- TGI (MDA-N): 1650 nM
- TGI (CCRF-CEM leukemia): 1050 nM
- TGI (SF-539 CNS): 542 nM
- TGI (SNB-19 CNS): 2650 nM
- TGI (KM12 colon): 5.44 µM
- TGI (SW-620 colon): 2180 nM
- TGI (TK-10 renal): 1270 nM
- TGI (SF-295 CNS): 8.46 µM
- TGI (A549 NSCLC): 3.81 µM
- TGI (SF-268 CNS): 1850 nM
- TGI (NCI-H226 lung): 7.7 µM
- TGI (SK-MEL-28 melanoma): 2920 nM
- TGI (RPMI-8226 leukemia): 984 nM
- TGI (EKVX NSCLC): 2880 nM
- TGI (UACC-257 melanoma): 1300 nM
- TGI (IGROV1 ovarian): 1940 nM
- TGI (SNB-75 CNS): 3.12 µM
- TGI (OVCAR-4 ovarian): 7.47 µM
- TGI (A498 renal): 3.96 µM
- TGI (786-0 renal): 1290 nM
- TGI (UO-31 renal): 2630 nM
- TGI (HOP-92 NSCLC): 2920 nM
- TGI (LOX IMVI melanoma): 1410 nM
- TGI (UACC-62 melanoma): 2620 nM
- TGI (ACHN renal): 2310 nM
- TGI (SK-OV-3 ovarian): 6.19 µM
- TGI (PC-3 prostate): 1760 nM
- TGI (DU-145 prostate): 1170 nM
- TGI (OVCAR-3 ovarian): 2640 nM
- TGI (HL-60(TB) leukemia): 3.98 µM
- TGI (HCC-2998 colon): 3.68 µM
- TGI (MCF7 breast): 1190 nM
- TGI (HS 578T breast): 12.4 µM
- TGI (MDA-MB-231 breast): 2300 nM
- TGI (OVCAR-5 ovarian): 4.65 µM
- TGI (OVCAR-8 ovarian): 1350 nM
- TGI (K-562 leukemia): 3.68 µM
- TGI (HCT-116 colon): 2130 nM
- TGI (RXF 393 renal): 1530 nM
- TGI (MALME-3M melanoma): 2620 nM
- TGI (NCI-H23 lung): 2260 nM
- TGI (SN12C renal): 2080 nM
- TGI (HCT-15 colon): 3.21 µM
- TGI (NCI-H522 lung): 1440 nM
- TGI (CAKI-1 renal): 2780 nM
- TGI (NCI/ADR-RES ovarian): 6.79 µM
- TGI (MOLT-4 leukemia): 4.26 µM
- TGI (SK-MEL-2 melanoma): 2870 nM
- TGI (NCI-H460 lung): 2430 nM
- TGI (T-47D breast): 1870 nM
- TGI (MDA-MB-435): 2370 nM
- TGI (HT29 colon): 2380 nM
- TGI (SK-MEL-5 melanoma): 1890 nM
- TGI (BT-549 breast): 3.09 µM
- TGI (M14 melanoma): 2460 nM
- TGI (HOP-62 NSCLC): 3.6 µM
- TGI (U251 CNS): 1510 nM
